The values below come from US8980951B2, “Sesquiterpenes for antifungal applications” (Kansas State University Research Foundation, priority 2011, dated 2015).

One data set relates to dermatophyte fungi. The experiment in a line: MIC summary for dermatophyte fungi. The format is cell-based. How it is done: (§1) Synthetic pure albicanol and drimenol were dissolved in DMSO (10 mg/ml as stock solution) and used to determine their antifungal activities (minimum inhibitory concentration, MIC) against various fungi according to the microdilution assay of Clinical and Laboratory Standards Institute (CLSI (2008). Reference method for broth dilution antifungal susceptibility testing of yeasts and filamentous fungi: Approved Standard-Third Edition. Clinical and Laboratory Standards Institute 940 West Valley Road, Wayne, Pa. CLSI document M27-A3 & M38-A28. An initial assay had confirmed the antifungal activity of albicanol and drimenol; therefore, the susceptibility assay was extended to other pathogenic fungi including fluconazole resistant C. albicans, various species of candida, Cryptococcus, Aspergillus and a dermatophyte fungus.
(§2) Yeast cells or conidia (for filamentous fungi) were suspended in RPMI 1640 (with 50 mM glucose) medium to a final concentration of 10^4 cfu/ml and distributed in a 96-well microplate to a total volume of 100 μl/well. […] The MIC was defined as the lowest compound concentration at which no growth occurred, as determined visually and by OD600 measurement (or microscopically, inverted). […] Cytotoxicity of albicanol and drimenol was determined using human intestinal epithelial cell lines (Int-407) by utilizing cell viability assay kit of Promega.

Data set [1] deals with fluconazole resistant C. alibcans, Cryptococcus sp. and Aspergillus sp. The experiment in a line: MIC summary for fungi. The conditions noted are these: Candida albicans, read-out: minimum inhibitory concentration (MIC). It is filed as cell-based. The procedure:
as §1, §2

Data set [2] relates to A. nidulans, C. albicans, C. albicans 95-158 Flu-R, Cryp. neomormans, Candida krusei, and C. glabrata. As to the kind of experiment: Fungicidal test, viability of treated fungal cells spotted on YPD agar. The format is cell-based. The conditions noted are these: for effect of amines or YPD medium on bioactivity: presence of amines or YPD medium.
Another data set relates to various fungi. As to the kind of experiment: Fungal EC50 and selective index summary. It is filed as cell-based. The note with it: against various fungi; read-out: effective fungal concentration-50 (EC50). The procedure:
(§3) Yeast cells or conidia (for filamentous fungi) were suspended in RPMI 1640 (with 50 mM glucose) medium to a final concentration of 10^4 cfu/ml and distributed in a 96-well microplate to a total volume of 100 μl/well. Albicanol and drimenol were added into the wells and serial dilutions (broad or narrow range) with replicates were made, and wells with or without DMSO served as controls. Plates were incubated without shaking at 37° C. for 24-48 h for yeasts and 30° C. for 4 days for filamentous fungi (Aspergillus and Trichophyton sp). The MIC was defined as the lowest compound concentration at which no growth occurred, as determined visually and by OD600 measurement (or microscopically, inverted). As a positive control, amphotericin B (AMB) (1 μg/ml) was also included in parallel. Cytotoxicity of albicanol and drimenol was determined using human intestinal epithelial cell lines (Int-407) by utilizing cell viability assay kit of Promega.

Another data set relates to C. albicans SC5314. The experiment in a line: CLSI microdilution antifungal susceptibility assay. It is filed as cell-based. The note with it: for EC50 / MIC: Candida albicans; for EC50: 50% fungal inhibitory concentration; for MIC: lowest concentration with no fungal growth, CLSI. How it is done: as §1, §3
A further data set deals with Cryp. neoformans. The experiment in a line: CLSI microdilution antifungal susceptibility assay. It is filed as cell-based. The conditions noted are these: for EC50 / MIC: Cryptococcus neoformans; for EC50: 50% fungal inhibitory concentration; for MIC: lowest concentration with no fungal growth, CLSI. The procedure: as §1, §3
In another data set the test system is C. albicans Day 185. The experiment in a line: CLSI microdilution antifungal susceptibility assay. It is filed as cell-based. The note with it: for EC50 / MIC: Candida albicans; for EC50: DAY185, 50% fungal inhibitory concentration; for MIC: DAY185, lowest concentration with no fungal growth, CLSI. How it is done:
as §1, §3

For a further data set, the system named is T. equinum. As to the kind of experiment: CLSI microdilution antifungal susceptibility assay. It is filed as cell-based. The note with it: for EC50: 50% fungal inhibitory concentration; for MIC: lowest concentration with no fungal growth, CLSI. How it is done: as §1, §3
Data set [3] relates to Caenorhabditis elegans (worm). The experiment in a line: Toxicity to worms in the Candidiasis model. It is filed as in vivo. The note with it: at concentrations that inhibit fungal growth. The procedure: (§4) In order to determine antifungal efficacy and toxicity of albicanol and drimenol simultaneously, Caenorhabditis elegans (worm), a non-mammalian host model of Candidiasis was used. Worms fed with C. albicans yeast cells were incubated in RPMI medium in the presence or absence of drimenol. After 4-5 days worms were scored for survival under an inverted microscope and images were recorded. […] Note dead worms (straight shapes) and clusters of fungal growth in wells without drimenol (−Dri).

A short description of data set [4]: Cytotoxicity, Promega's cell viability assay kit. The format is cell-based. The conditions noted are these: human, Int-407 intestinal epithelial cells; summary in description; read-out: cytotoxic inhibitory concentration (IC50) against Int. 407. The procedure: as §3
The subject of data set [5] is barcoded mutants of Saccharomyces cerevisiae. The experiment in a line: Genome-wide fitness (haploinsufficiency) profiling, yeast TAG4 microarray. It is filed as cell-based. The conditions noted are these: at 20% growth inhibitory concentration; 20 generations.
Another data set deals with C. albicans. The experiment in a line: Caenorhabditis elegans host model of Candidiasis. The format is in vivo. The conditions noted are these: 50 μg/ml; RPMI medium; scored after 4-5 days. How it is done:
as §4

Values after ≈ are worked out from the molar mass of the structure shown.

For `C=C1CC[C@H]2C(C)(C)CCC[C@]2(C)[C@H]1CO` [Albicanol, (+)-albicanol], the MIC against dermatophyte fungi is 5 to 15 µg/mL (≈ 22.5 to 67.5 µM); in data set [1], 25 to 50 µg/mL (≈ 112 to 225 µM); in the data set with C. albicans SC5314, 50 µg/mL (≈ 225 µM); against Cryp. neoformans it was 40 µg/mL (≈ 180 µM); against C. albicans Day 185, 40 µg/mL (≈ 180 µM); with T. equinum, 15 µg/mL (≈ 67.5 µM). Also, in [2], the “effect of amines or YPD medium on bioactivity” value is on record as “not affected”. Besides, the EC50 was 5 to 30 µg/mL (≈ 22.5 to 135 µM) in the data set with various fungi; 25 µg/mL (≈ 112 µM) in the data set on C. albicans SC5314; 22 µg/mL (≈ 98.9 µM) in the data set on Cryp. neoformans; 22 µg/mL (≈ 98.9 µM) in the data set on C. albicans Day 185; 8 µg/mL (≈ 36 µM) in the data set on T. equinum. Moreover, the “Selective Index (Int-407 IC50/fungal EC50)” value in the data set on C. albicans SC5314 is reported as 2; in the data set on Cryp. neoformans it was 2.27; with C. albicans Day 185, 2.27; in the data set with T. equinum, 6.25 (6.25). In addition, in data set [3], the cytotoxicity to worms entry is reported as “less or no cytotoxicity to worms”. The CC50 in data set [4] was roughly 50 µg/mL (≈ 225 µM).
On to `CC1=CC[C@H]2C(C)(C)CCC[C@]2(C)[C@H]1CO` [drimenol, (−)-drimenol], for which the “strains/genes depleted at the log ratio of >1.5” value in [5] is reported as 34. For the same compound, the MIC with dermatophyte fungi was 5 to 15 µg/mL (≈ 22.5 to 67.5 µM); in data set [1] it was 25 to 50 µg/mL (≈ 112 to 225 µM); against C. albicans SC5314, 40 µg/mL (≈ 180 µM); in the data set on Cryp. neoformans, 30 µg/mL (≈ 135 µM); in the data set with C. albicans Day 185 it was 25 µg/mL (≈ 112 µM); against T. equinum, 5 µg/mL (≈ 22.5 µM). The “protection of worms from C. albicans mediated death” value in the data set with C. albicans is “prevented C. albicans growth and protected worms from C. albicans mediated death”. Also, in [2] (all the fungi tested, 100 μg/ml for 48 h, read-out: minimum fungicidal concentration, MFC), the MFC was found to be 100 µg/mL (≈ 450 µM). Moreover, in [2], the “effect of amines or YPD medium on bioactivity” value was “not affected”. Further, the EC50 is 5 to 30 µg/mL (≈ 22.5 to 135 µM) in the data set on various fungi; 22 µg/mL (≈ 98.9 µM) in the data set on C. albicans SC5314; 16 µg/mL (≈ 72 µM) with Cryp. neoformans; 12 µg/mL (≈ 54 µM) in the data set on C. albicans Day 185; 8 µg/mL (≈ 36 µM) in the data set on T. equinum. The “Selective Index (Int-407 IC50/fungal EC50)” value in the data set with C. albicans SC5314 is reported as 2.27; with Cryp. neoformans, 3.12; in the data set on C. albicans Day 185, 4.16; with T. equinum, 6.25 (6.25). Moreover, in [3], the cytotoxicity to worms result is listed as “less or no cytotoxicity to worms”. The CC50 in data set [4] was roughly 50 µg/mL (≈ 225 µM).
